The experiment deals with T1, human P2X4 (Homo sapiens, UniProt Q99571).
T1 sequence (Q99571 1-388): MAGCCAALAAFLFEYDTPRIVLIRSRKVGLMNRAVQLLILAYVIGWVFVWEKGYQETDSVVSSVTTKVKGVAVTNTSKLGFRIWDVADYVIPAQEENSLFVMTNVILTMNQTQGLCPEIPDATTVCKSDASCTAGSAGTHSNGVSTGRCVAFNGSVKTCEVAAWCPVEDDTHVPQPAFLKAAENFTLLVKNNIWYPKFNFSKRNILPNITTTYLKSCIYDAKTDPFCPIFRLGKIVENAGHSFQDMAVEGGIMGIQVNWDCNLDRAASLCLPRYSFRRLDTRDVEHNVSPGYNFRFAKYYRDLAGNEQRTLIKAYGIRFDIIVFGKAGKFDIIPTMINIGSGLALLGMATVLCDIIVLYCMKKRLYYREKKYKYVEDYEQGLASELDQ
Kind of experiment: Human P2X4 HEK Cell FLIPR Assay. The class given is cell-based. As to conditions: agonist Bz-ATP at EC80; for Emax: HEK293, HEK293 cells, percentage of maximal inhibition, read-out: Human P2X4 HEK Cells (FLIPR Assay) avg Efficacy [%]; for IC50: HEK293 cells, individual values listed where some fall outside detection range. The gist of the method:
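HEK293 cells stably expressing human P2X4, Fluo8-AM loaded 30 min at 37° C, then compound 30 min at room temperature (0.5% DMSO, pH 7.4 buffer with 1.8 mM CaCl2). Bz-ATP at its daily-determined EC80 added; calcium fluorescence read over 120 sec; IC50 from peak RFU normalized to agonist control, triplicates.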

Values joined by “and” are separate entries in the source; they are usually repeats but may differ in a detail not shown here. Equal entries are not always repeated.

As a reminder, the IC50 is the concentration at which inhibition is half-maximal. Read a high IC50 as weaker potency in that assay.

For `CC(C)(C)c1cnn(-c2ccc(NC(=O)Cc3ccccc3Cl)cc2S(N)(=O)=O)c1` [Example 394, N-[4-(4-tert-Butyl-1H-pyrazol-1-yl)-3-sulfamoylphenyl]-2-(2-chlorophenyl)acetamide], the Emax worked out at 86% and the IC50 was determined as 740 nM.

Turning to `NS(=O)(=O)c1cc(NC(=O)Cc2ccccc2Cl)ccc1-n1ncc2ccccc21` [Example 395, 2-(2-Chlorophenyl)-N-[4-(1H-indazol-1-yl)-3-sulfamoylphenyl]acetamide], the Emax came to 86% and the IC50 is 73 nM.

For the molecule `NS(=O)(=O)c1cc(NC(=O)Cc2ccccc2Cl)ccc1-n1cc2ccccc2n1` [Example 396, 2-(2-Chlorophenyl)-N-[4-(2H-indazol-2-yl)-3-sulfamoylphenyl]acetamide], the Emax turned out to be 44%; the IC50 is 9.58 µM and > 25 µM (4×).

Take `NS(=O)(=O)c1cc(NC(=O)Cc2ccccc2F)ccc1-n1cc2ccccc2n1` [Example 397, 2-(2-Fluorophenyl)-N-[4-(2H-indazol-2-yl)-3-sulfamoylphenyl]acetamide]: the Emax is 43% and the IC50 is more than 25000 nM.

Take `NS(=O)(=O)c1cc(NC(=O)Cc2ccccc2F)ccc1-n1ncc2ccccc21` [Example 398, 2-(2-Fluorophenyl)-N-[4-(1H-indazol-1-yl)-3-sulfamoylphenyl]acetamide]: the Emax is 57% and the IC50 was determined as 207 nM.

As to `CN(C)C(=O)c1cnn(-c2ccc(NC(=O)Cc3ccccc3Cl)cc2S(N)(=O)=O)c1` [Example 399, 1-(4-{[(2-Chlorophenyl)acetyl]amino}-2-sulfamoylphenyl)-N,N-dimethyl-1H-pyrazole-4-carboxamide], the Emax came to 92% and the IC50 was 84 nM.

`NS(=O)(=O)c1cc(NC(=O)Cc2ccccc2Cl)ccc1-n1cc(NC(=O)C2CC2)cn1` [Example 400, N-[1-(4-{[(2-Chlorophenyl)acetyl]amino}-2-sulfamoylphenyl)-1H-pyrazol-4-yl]cyclopropanecarboxamide]: the Emax was found to be 88% and the IC50 stood at 87 nM.

Turning to `NS(=O)(=O)c1cc(NC(=O)Cc2ccccc2Cl)ccc1-n1cc(-c2cnccn2)cn1` [Example 401, 2-(2-Chlorophenyl)-N-{4-[4-(pyrazin-2-yl)-1H-pyrazol-1-yl]-3-sulfamoylphenyl}acetamide], the Emax was 82% and the IC50 was 23 nM.

`NS(=O)(=O)c1cc(NC(=O)Cc2ccccc2Cl)ccc1-n1cc(-c2ccccn2)cn1` [Example 402, 2-(2-Chlorophenyl)-N-{4-[4-(pyridin-2-yl)-1H-pyrazol-1-yl]-3-sulfamoylphenyl}acetamide]: the Emax came out at 85% and the IC50 turned out to be 41 nM.

As for `NS(=O)(=O)c1cc(NC(=O)Cc2ccccc2Cl)ccc1-n1cc(-c2cccnc2)cn1` [Example 403, 2-(2-Chlorophenyl)-N-{4-[4-(pyridin-3-yl)-1H-pyrazol-1-yl]-3-sulfamoylphenyl}acetamide], the Emax came out at 88% and the IC50 was determined as 16 nM.

With `NS(=O)(=O)c1cc(NC(=O)Cc2ccccc2Cl)ccc1-n1cc(-c2ccncn2)cn1` [Example 404, 2-(2-Chlorophenyl)-N-{4-[4-(pyrimidin-4-yl)-1H-pyrazol-1-yl]-3-sulfamoylphenyl}acetamide], the Emax is 73% and the 50% inhibitory concentration (IC50) is 175 nM.

As to `NS(=O)(=O)c1cc(NC(=O)Cc2ccccc2F)ccc1-n1cc(-c2ccncn2)cn1` [Example 405, 2-(2-Fluorophenyl)-N-{4-[4-(pyrimidin-4-yl)-1H-pyrazol-1-yl]-3-sulfamoylphenyl}acetamide], the Emax turned out to be 65% and the half-inhibitory concentration (IC50) is 5670 nM.

Consider `COc1ccc(CC(=O)Nc2ccc(-n3ncc(C(F)(F)F)n3)c(S(N)(=O)=O)c2)cc1` [Example 406, 2-(4-Methoxyphenyl)-N-{3-sulfamoyl-4-[4-(trifluoromethyl)-2H-1,2,3-triazol-2-yl]phenyl}acetamide], for which the Emax was 64% and the IC50 was 6840 nM.

Turning to `COc1ccc(CC(=O)Nc2ccc(-n3cc(C(F)(F)F)nn3)c(S(N)(=O)=O)c2)cc1` [Example 407, 2-(4-Methoxyphenyl)-N-{3-sulfamoyl-4-[4-(trifluoromethyl)-1H-1,2,3-triazol-1-yl]phenyl}acetamide], the Emax worked out at 86% and the IC50 came out at 429 nM.

Take `Cc1ccc(CC(=O)Nc2ccc(-n3ncc(C(F)(F)F)n3)c(S(N)(=O)=O)c2)cc1` [Example 408, 2-(4-Methylphenyl)-N-{3-sulfamoyl-4-[4-(trifluoromethyl)-2H-1,2,3-triazol-2-yl]phenyl}acetamide]: the Emax was 74% and the IC50 was 2640 nM.

On to `Cc1ccc(CC(=O)Nc2ccc(-n3cc(C(F)(F)F)nn3)c(S(N)(=O)=O)c2)cc1` [Example 409, 2-(4-Methylphenyl)-N-{3-sulfamoyl-4-[4-(trifluoromethyl)-1H-1,2,3-triazol-1-yl]phenyl}acetamide], for which the Emax is 85% and the IC50 is 445 nM.

Turning to `NS(=O)(=O)c1cc(NC(=O)Cc2ccc(C(F)F)cc2)ccc1-n1ncc(C(F)(F)F)n1` [Example 410, 2-[4-(Difluoromethyl)phenyl]-N-{3-sulfamoyl-4-[4-(trifluoromethyl)-2H-1,2,3-triazol-2-yl]phenyl}acetamide], the Emax was found to be 69% and the IC50 is 5450 nM.

On to `NS(=O)(=O)c1cc(NC(=O)Cc2ccc(C(F)F)cc2)ccc1-n1cc(C(F)(F)F)nn1` [Example 411, 2-[4-(Difluoromethyl)phenyl]-N-{3-sulfamoyl-4-[4-(trifluoromethyl)-1H-1,2,3-triazol-1-yl]phenyl}acetamide], for which the Emax is 90% and the IC50 worked out at 84 nM.

On to `NS(=O)(=O)c1cc(NC(=O)Cc2ccccc2F)ccc1-n1ncc(C(F)(F)F)n1` [Example 412, 2-(2-Fluorophenyl)-N-{3-sulfamoyl-4-[4-(trifluoromethyl)-2H-1,2,3-triazol-2-yl]phenyl}acetamide], for which the Emax worked out at 68% and the IC50 was 1590 nM.

Turning to `NS(=O)(=O)c1cc(NC(=O)Cc2ccccc2F)ccc1-n1cc(C(F)(F)F)nn1` [Example 413, 2-(2-Fluorophenyl)-N-{3-sulfamoyl-4-[4-(trifluoromethyl)-1H-1,2,3-triazol-1-yl]phenyl}acetamide], the Emax came out at 89% and the IC50 was 74 nM.

In the case of `NS(=O)(=O)c1cc(NC(=O)Cc2ccc(C(F)(F)F)cc2Cl)ccc1-n1ncc(C(F)(F)F)n1` [Example 414, 2-[2-Chloro-4-(trifluoromethyl)phenyl]-N-{3-sulfamoyl-4-[4-(trifluoromethyl)-2H-1,2,3-triazol-2-yl]phenyl}acetamide], the Emax is 20% and the IC50 is more than 25000 nM.

For the molecule `NS(=O)(=O)c1cc(NC(=O)Cc2ccc(C(F)(F)F)cc2Cl)ccc1-n1cc(C(F)(F)F)nn1` [Example 415, 2-[2-Chloro-4-(trifluoromethyl)phenyl]-N-{3-sulfamoyl-4-[4-(trifluoromethyl)-1H-1,2,3-triazol-1-yl]phenyl}acetamide], the Emax came out at 69% and the IC50 was found to be 200 nM.

On to `NS(=O)(=O)c1cc(NC(=O)Cc2ccc(Cl)cc2Cl)ccc1-n1ncc(C(F)(F)F)n1` [Example 416, 2-(2,4-Dichlorophenyl)-N-{3-sulfamoyl-4-[4-(trifluoromethyl)-2H-1,2,3-triazol-2-yl]phenyl}acetamide], for which the Emax was determined as 51%; the IC50 was 8.3 µM and 17.8 µM and > 25 µM (2×).

For the molecule `NS(=O)(=O)c1cc(NC(=O)Cc2ccc(Cl)cc2Cl)ccc1-n1cc(C(F)(F)F)nn1` [Example 417, 2-(2,4-Dichlorophenyl)-N-{3-sulfamoyl-4-[4-(trifluoromethyl)-1H-1,2,3-triazol-1-yl]phenyl}acetamide], the Emax amounted to 68% and the IC50 is 51 nM.

As to `NS(=O)(=O)c1cc(NC(=O)Cc2ccccc2Cl)ccc1-c1cncs1` [Example 418, 2-(2-Chlorophenyl)-N-[3-sulfamoyl-4-(1,3-thiazol-5-yl)phenyl]acetamide], the Emax was 91% and the IC50 was determined as 15 nM.

With `NS(=O)(=O)c1cc(NC(=O)Cc2ccccc2Cl)ccc1-c1ccsn1` [Example 419, 2-(2-Chlorophenyl)-N-[3-sulfamoyl-4-(1,2-thiazol-3-yl)phenyl]acetamide], the Emax stood at 89% and the IC50 was 274 nM.

Regarding `Cc1nc(-c2ccc(NC(=O)Cc3ccccc3Cl)cc2S(N)(=O)=O)cs1` [Example 420, 2-(2-Chlorophenyl)-N-[4-(2-methyl-1,3-thiazol-4-yl)-3-sulfamoylphenyl]acetamide], the Emax stood at 75% and the IC50 came to 69 nM.

As for `COc1nc(-c2ccc(NC(=O)Cc3ccccc3Cl)cc2S(N)(=O)=O)cs1` [Example 421, 2-(2-Chlorophenyl)-N-[4-(2-methoxy-1,3-thiazol-4-yl)-3-sulfamoylphenyl]acetamide], the Emax was 86% and the IC50 is 680 nM.

Take `COc1ncc(-c2ccc(NC(=O)Cc3ccccc3Cl)cc2S(N)(=O)=O)s1` [Example 422, 2-(2-Chlorophenyl)-N-[4-(2-methoxy-1,3-thiazol-5-yl)-3-sulfamoylphenyl]acetamide]: the Emax worked out at 90% and the IC50 stood at 46 nM.

For the origin of these results see patent US11524938B2, “Aromatic sulfonamide derivatives” (Bayer Pharma Aktiengesellschaft, priority 2016, dated 2022).
